What follows are compounds tested on HBeAg (surrogate marker for cccDNA) in HepDES19 cells (assay: Engineered HepDES19 primary screen assay (HBeAg ELISA)). Details: Hepatitis B virus, 120 h, HBeAg in culture supernatant, 5 days incubation, read-out: IC50 (HepDES19 primary screen assay, inhibition of extracellular HBeAg level).
Format: cell-based, HBV
Excerpt: The assay was employed to screen for cccDNA inhibitors. HepDES19 is a cccDNA-producing cell line. In this cell line, HBeAg in the cell culture supernatant as surrogate marker, as HBeAg production depends on cccDNA level and activity. HepDES19 is an engineered cell line which contains a 1.1 unit length HBV genome, and pgRNA transcription from the transgene is controlled by Tetracycline (Tet). In the absence of Tet, pgRNA transcription will be induced, but HBV e antigen (HBeAg) could not be produced from this pgRNA due to very short leader sequence before the HBeAg start codon and the start codon is disrupted. Only after cccDNA is formed, the missing leader sequence and start codon mutation would be restored from the 3′-terminal redundancy of pgRNA, and then HBeAg could be synthesized. Therefore, HBeAg could be used as a surrogate marker for cccDNA (Zhou, T. et al., Antiviral Res. (2006), 72(2), 116-124; Guo, H. et al., J. Virol. (2007), 81(22), 12472-12484).
HepDES19 cells were seeded at 2×10^6 cells per T150 flask and cultured with the culture medium (Dulbecco's Modified Eagle Medium: Nutrient Mixture F-12 [DMEM-F12, Gibco Cat. 11320-82], 10% Fetal Bovine Serum [FBS, Clontech Cat. 631101], 0.1 mM Non-Essential Amino Acids Solution [NEAA, Gibco Cat. 11140-050], 50 μg/mL Penicillin-Streptomycin [PS, Invitrogen Cat. 15140-163], 500 μg/mL Geneticin [G418, Invitrogen Cat. 10131-027]) containing 3 μg/mL Tet (Sigma, Cat. 87128) for 5 days. Cells were then seeded at 4×10^6 cells per T150 in the same culture medium as described above in the absence of Tet for 8 days. Cells were then harvested and frozen at density of 2×10^6 cells per mL. For compound testing, the frozen cells were thawed and seeded into 96-well plates at a density of 6×10^4 cells per well. At 24 hours after seeding, half log serial dilutions of compounds made with Dimethyl sulfoxide (DMSO, Sigma, Cat. D2650) were further diluted with the same culture medium as described above before they were added to the cells to reach desired final compound concentrations and 1% DMSO concentration. Plates were then incubated at 37° C. for another 5 days before measurement of HBeAg level and cell viability. Intracellular HBeAg level were measured with enzyme-linked immunosorbent assay (ELISA) kit (Shanghai Kehua Diagnostic Medical Products Co., Ltd). Cell viability was assessed using Cell Counting Kit-8 (DonJindo, Cat. CK04-20). IC50 values were derived from the dose-response curve using 4 parameter logistic curve fit method.
The compounds of the present invention were tested for their capacity to inhibit extracellular HBeAg level as described herein.
Compound `O=C(O)C1CCN(CCOc2ccccc2-c2cc(=O)c3cc(F)cc(Cl)c3o2)C1` (centres unmarked) [Example 043, 1-[2-[2-(8-chloro-6-fluoro-4-oxo-chromen-2-yl)phenoxy]ethyl]pyrrolidine-3-carboxylic acid] has an IC50 of 1420 nM. `O=C(O)C(=O)N1CCN(CCOc2cc(C(F)(F)F)ccc2-c2cc(=O)c3cccc(Cl)c3o2)C1=O` [Example 162, 2-[3-[2-[2-(8-chloro-4-oxo-chromen-2-yl)-5-(trifluoromethyl)phenoxy]ethyl]-2-oxo-imidazolidin-1-yl]-2-oxo-acetic acid] gave an IC50 of 80 nM. `CC(C)COc1ccc(-c2cc(=O)c3cccc(Cl)c3o2)c(OCCN2CC[C@H](C(=O)O)C2)c1` [Example 040, (3S)-1-[2-[2-(8-chloro-4-oxo-chromen-2-yl)-5-isobutoxy-phenoxy]ethyl]pyrrolidine-3-carboxylic acid] gave an IC50 of 9060 nM. `O=c1cc(-c2ccc(Br)cc2OCCN[C@H]2CC[C@H](C(=O)O)CC2)oc2c(Cl)cccc12` [Example 056, trans-4-[2-[5-bromo-2-(8-chloro-4-oxo-chromen-2-yl)phenoxy]ethylamino]cyclohexanecarboxylic acid] showed an IC50 of 1000 nM. For `CCC(=O)NCCCOc1cc(C(F)(F)F)ccc1-c1cc(=O)c2cccc(Cl)c2o1` [Example 099], the IC50 was 6470 nM. With `O=C(NS(=O)(=O)C1CC1)C1CCCN1CCOc1cc(C(F)(F)F)ccc1-c1cc(=O)c2cccc(Cl)c2o1` (centres unmarked) [Example 072, 1-[2-[2-(8-chloro-4-oxo-chromen-2-yl)-5-(trifluoromethyl)phenoxy]ethyl]-N-cyclopropylsulfonyl-pyrrolidine-2-carboxamide] the IC50 was 2890 nM. `Cc1cc(-c2cc(=O)c3cccc(Cl)c3o2)c(OCCOCCN2CCC[C@@H]2C(=O)O)cc1Br` [Example 048, (2R)-1-[2-[2-[5-bromo-2-(8-chloro-4-oxo-chromen-2-yl)-4-methyl-phenoxy]ethoxy]ethyl]pyrrolidine-2-carboxylic acid] gave an IC50 of 6680 nM. `O=C(O)C1CC(=O)N(CCCOc2cc(Br)ccc2-c2cc(=O)c3cccc(Cl)c3o2)C1` (centres unmarked) [Example 169, 1-[3-[5-bromo-2-(8-chloro-4-oxo-chromen-2-yl)phenoxy]propyl]-5-oxo-pyrrolidine-3-carboxylic acid] was tested, and the IC50 was 990 nM. `COc1cc(OCCNC(=O)C(=O)O)c(-c2cc(=O)c3cccc(Cl)c3o2)cc1OC` [Example 114] gave an IC50 of 870 nM. For `O=C(O)C1CC(NCCOc2cc(C(F)(F)F)ccc2-c2cc(=O)c3cccc(Cl)c3o2)C1` (centres unmarked) [Example 038, 3-[2-[2-(8-chloro-4-oxo-chromen-2-yl)-5-(trifluoromethyl)phenoxy]ethylamino]cyclobutanecarboxylic acid], the IC50 was 7240 nM. In the case of `O=C(O)C(=O)NCCOc1cc(Br)ccc1-c1cc(=O)c2cccc(Cl)c2o1` [Example 113], the IC50 is reported as 490 nM. `Cc1ccc(-c2cc(=O)c3cccc(Cl)c3o2)c(OCCCNC(=O)C(=O)O)c1` [Example 120] showed an IC50 of 2960 nM. `CCOC(=O)C(=O)NCCOc1cc(OC)ccc1-c1cc(=O)c2cccc(Cl)c2o1` [Example 104] gave an IC50 of 9650 nM. `COc1ccc(-c2cc(=O)c3cccc(Cl)c3o2)c(OCCNC(=O)C(N)=O)c1` [Example 147, N′-[2-[2-(8-chloro-4-oxo-chromen-2-yl)-5-methoxy-phenoxy]ethyl]oxamide] gave an IC50 of 1200 nM. Work on `COc1cc(C)cc(OCCNC(=O)C(=O)O)c1-c1cc(=O)c2cccc(Cl)c2o1` [Example 118] yielded an IC50 of 1980 nM. `CS(=N)(=O)C1CCN(CCOc2cc(C(F)(F)F)ccc2-c2cc(=O)c3cccc(Cl)c3o2)CC1` (centres unmarked) [Example 094, 8-chloro-2-[2-[2-[4-(methylsulfonimidoyl)-1-piperidyl]ethoxy]-4-(trifluoromethyl)phenyl]chromen-4-one] gave an IC50 of 9790 nM. In the case of `Cc1cc(-c2cc(=O)c3cccc(Cl)c3o2)c(OCCCNC2CC(C(=O)O)C2)cc1Cl` (centres unmarked) [Example 046, 3-[3-[5-chloro-2-(8-chloro-4-oxo-chromen-2-yl)-4-methyl-phenoxy]propylamino]cyclobutanecarboxylic acid], the IC50 is reported as 4370 nM. In the case of `Cc1ccc(-c2cc(=O)c3cccc(Cl)c3o2)c(OCCNC(=O)C(=O)O)c1` [Example 121], the IC50 is reported as 4250 nM. Compound `O=c1cc(-c2ccc(C(F)(F)F)cc2OCCCN([C@H]2C[C@@H](C(=O)O)C2)S(=O)(=O)c2ccccc2)oc2c(Cl)cccc12` [Example 141] has an IC50 of 350 nM. `Cc1ccc(S(=O)(=O)NC(=O)NCCOc2cc(C(F)(F)F)ccc2-c2cc(=O)c3cccc(Cl)c3o2)cc1` [Example 158, 1-[2-[2-(8-chloro-4-oxo-chromen-2-yl)-5-(trifluoromethyl)phenoxy]ethyl]-3-(p-tolylsulfonyl)urea] was tested, and the IC50 was 8350 nM. `O=C(O)C(=O)N1CC[C@@H](Oc2cc(C(F)(F)F)ccc2-c2cc(=O)c3cccc(Cl)c3o2)C1` [Example 130] was tested, and the IC50 was 4820 nM. For `O=C(O)CC1CCN(CCCOc2cc(C(F)(F)F)ccc2-c2cc(=O)c3cccc(Cl)c3o2)C1` (centres unmarked) [Example 008, 2-[1-[3-[2-(8-chloro-4-oxo-chromen-2-yl)-5-(trifluoromethyl)phenoxy]propyl]pyrrolidin-3-yl]acetic acid], the IC50 was 170 nM. Compound `O=C(O)C1CCN(CCOc2cc(Br)ccc2-c2cc(=O)c3cccc(Cl)c3o2)C1` (centres unmarked) [Example 021, 1-[2-[5-bromo-2-(8-chloro-4-oxo-chromen-2-yl)phenoxy]ethyl]pyrrolidine-3-carboxylic acid] has an IC50 of 180 nM. `CCOC(=O)C(=O)NCCOc1cc(OC)c(Br)cc1-c1cc(=O)c2cccc(Cl)c2o1` [Example 102] showed an IC50 of 2910 nM. `O=C(O)CN(CCCOc1cc(C(F)(F)F)ccc1-c1cc(=O)c2cccc(Cl)c2o1)S(=O)(=O)C1CC1` [Example 145] gave an IC50 of 14300 nM. `O=C(O)CNCCOc1cc(C(F)(F)F)ccc1-c1cc(=O)c2cccc(Cl)c2o1` [Example 123] showed an IC50 of 5110 nM. `COc1cc(OCCOCCN2CC[C@H](C(=O)O)C2)c(-c2cc(=O)c3cccc(Cl)c3o2)cc1C` [Example 051, (3S)-1-[2-[2-[2-(8-chloro-4-oxo-chromen-2-yl)-5-methoxy-4-methyl-phenoxy]ethoxy]ethyl]pyrrolidine-3-carboxylic acid] gave an IC50 of 7860 nM. Compound `O=C(O)[C@H]1CCN(CCOc2cc(C(F)(F)F)ccc2-c2cc(=O)c3cccc(Cl)c3o2)C1` [Example 034, (3S)-1-[2-[2-(8-chloro-4-oxo-chromen-2-yl)-5-(trifluoromethyl)phenoxy]ethyl]pyrrolidine-3-carboxylic acid] has an IC50 of 1120 nM. `O=C(O)C1CN(CCOc2ccccc2-c2cc(=O)c3cccc(Cl)c3o2)C1` [Example 033, 1-[2-[2-(8-chloro-4-oxo-chromen-2-yl)phenoxy]ethyl]azetidine-3-carboxylic acid] was tested, and the IC50 was 1090 nM. In the case of `CS(=O)(=O)N1CCN(CCCOc2cc(C(F)(F)F)ccc2-c2cc(=O)c3cccc(Cl)c3o2)CC1` [Example 081, 8-chloro-2-[2-[3-(4-methylsulfonylpiperazin-1-yl)propoxy]-4-(trifluoromethyl)phenyl]chromen-4-one], the IC50 is reported as 7110 nM. Compound `CS(=O)(=O)NC(=O)[C@@H]1CCN(CCCOc2cc(C(F)(F)F)ccc2-c2cc(=O)c3cccc(Cl)c3o2)C1` [Example 065, (3R)-1-[3-[2-(8-chloro-4-oxo-chromen-2-yl)-5-(trifluoromethyl)phenoxy]propyl]-N-methylsulfonyl-pyrrolidine-3-carboxamide] has an IC50 of 7210 nM. `Cc1ccc(-c2cc(=O)c3cccc(Cl)c3o2)c(OCCN2CCNC2=O)c1` [Example 091, 1-[2-[2-(8-chloro-4-oxo-chromen-2-yl)-5-methyl-phenoxy]ethyl]imidazolidin-2-one] gave an IC50 of 2830 nM. In the case of `O=c1cc(-c2ccc(C(F)(F)F)cc2OCCCNS(=O)(=O)c2ccccc2)oc2c(Cl)cccc12` [Example 097], the IC50 is reported as 1160 nM. Work on `NC(=O)C1CSCCN1CCOc1cc(Br)ccc1-c1cc(=O)c2cccc(Cl)c2o1` (centres unmarked) [Example 085, 4-[2-[5-bromo-2-(8-chloro-4-oxo-chromen-2-yl)phenoxy]ethyl]thiomorpholine-3-carboxamide] yielded an IC50 of 1080 nM. With `O=C(O)C(=O)NCC1(COc2cc(C(F)(F)F)ccc2-c2cc(=O)c3cccc(Cl)c3o2)COC1` [Example 010, 2-[[3-[[2-(8-chloro-4-oxo-chromen-2-yl)-5-(trifluoromethyl)phenoxy]methyl]oxetan-3-yl]methylamino]-2-oxo-acetic acid] the IC50 was 220 nM.

— US20220169639A1 (priority 2018, published 2022)
